Like-named read-outs stand apart in the source and are kept apart here.
Assays:
hMSCs [1] = test: Alamar blue cell viability assay in hMSCs; assay type: cell-based, human; settings: 500 nM, 25-day-old hMSCs
Experimental: (§1) Cell proliferation/viability assay: Cells were seeded at a density of 500 cells/well on 96-well plates. After 24 hr, compound (i.e., 5 nM, 50 nM, 500 nM or 5000 nM) was added to the cells in the presence or absence of calcium phosphate matrix (5 mg/mL). One-half of the media was replaced with fresh media containing compound every 48 hours for 8 days. At the specified time, 1 μg of Resazurin was added to each well of the 96-well plate and the fluorescence signal at 590 nm (excitation at 530 nm) was immediately measured. Readings were designated as time zero values (value0h). Cells were incubated for 1 hr before a second fluorescence measurement at 590 nm was made (value1h). The difference in 1 hr and 0 h (value1h−value0h) readings were used to plot the fold-change in cell proliferation/viability after normalizing to control conditions (i.e., DMSO vehicle treatment). Compounds of Formula II or IV that activate Wnt signaling and compounds of Formula VI that activate TLR signaling pathways were analyzed. This protocol was applied to hMSC and E15 cells as well. Cell proliferation was not robust in keeping with a narrow number of cells highly committed to the bone cell lineage.
The assay for cell proliferation followed the same procedure with hMSCs as described for C2C12 cells (Example 7).

hMSCs [2] = test: qPCR of apoptosis biomarkers (Bax and Fos) in hMSCs; assay type: cell-based, human; settings: for gene expression of apoptosis biomarkers (Bax and Fos): 500 nM to 5 μM, up to 25 days; for cytotoxicity as determined by quantification of apoptosis: hMSCs
hMSCs [3] = test: Alkaline Phosphatase functional activity assay in hMSCs; assay type: cell-based, human; parameters: key to Alkaline Phosphatase activity, −matrix, 8 days / Alkaline Phosphatase activity, +matrix, 8 days / Alkaline Phosphatase activity, −matrix, 25 days / Alkaline Phosphatase activity, +matrix, 25 days: fold-change vs DMSO-treated control (control = 1); settings: for ALP functional activity, compound and matrix versus compound alone or matrix alone / Alkaline Phosphatase activity, +matrix, 8 days / Alkaline Phosphatase activity, +matrix, 25 days / Alkaline Phosphatase activity, −matrix, 25 days / Alkaline Phosphatase activity, −matrix, 8 days: 500 nM; for ALP functional activity, compound and matrix versus compound alone or matrix alone: 8 and 25 day incubations, matrix 5 mg/mL (FIG. 3); for Alkaline Phosphatase activity, +matrix, 8 days / Alkaline Phosphatase activity, +matrix, 25 days: matrix 5 mg/mL; for Alkaline Phosphatase activity, +matrix, 8 days / Alkaline Phosphatase activity, +matrix, 25 days / Alkaline Phosphatase activity, −matrix, 25 days / Alkaline Phosphatase activity, −matrix, 8 days: mean +/− SD (n = 3); for Alkaline Phosphatase activity, −matrix, 8 days: fold; for EC50: dose-dependent induction in hMSCs, read-out: EC50 of induction of ALP activity
C2C12 cells [4] = test: Cell proliferation/viability assay (Resazurin / Alamar blue) in C2C12 cells; assay type: cell-based, Mouse; settings: for cell viability (Alamar blue): 500 nM every 48 hrs for 25 days
Experimental: as §1, with “One-half of the media was replaced with fresh media containing compound every 48 hours for 8 days.” left out

C2C12 cells [5] = test: Alizarin Red S staining (calcium deposition) in C2C12 cells; assay type: cell-based, Mouse; settings: 500 nM, 25 days of treatment
Experimental: Alizarin Red S Staining: C2C12 cells were cultured as described for the ALP functional activity assay (above, except compound was added every 48 hr for 25 days), but using 48-well plate format. On day 25, medium was removed and the cells were washed with PBS (calcium and magnesium free). Cells were fixed with 70% ethanol at room temperature for 30 mins, rinsed with water 3×. Following removal of water, 200 μl of Alizarin Red S (2%, pH 4.1) was added to each well and incubated for at least 20 mins. The dye was removed and the cells were washed with excess H2O four times with gentle mixing. The cells were covered with water to prevent evaporation and analyzed by plate reader or microscope. This protocol was applied to hMSC and E15 cells.

C2C12 cells [6] = test: qPCR of apoptosis biomarkers (Bax and Fos) in C2C12 cells; assay type: cell-based, Mouse; settings: 500 nM or 5 μM every 48 hrs, up to 25 days
C2C12 cells [7] = test: qPCR detection of osteogenic markers in C2C12 cells; assay type: cell-based, Mouse; settings: 500 nM, 6 days
C2C12 cells [8] = test: Alkaline Phosphatase (ALP) functional activity assay in C2C12 cells; assay type: cell-based, Mouse; settings: 500 nM; for ALP activity, combination of compound and matrix compared to compound alone or matrix alone: 6 day incubation, tricalcium phosphate ceramic matrix 5 mg/mL (FIG. 2); for ALP activity fold-changes +/− SD, +matrix / ALP activity fold-changes +/− SD, −matrix: 6 days of culture; for ALP activity fold-changes +/− SD, +matrix: calcium phosphate ceramic 5 mg/mL; for ALP activity fold-changes +/− SD, −matrix: absence of matrix, versus untreated (DMSO) cells
Summary of the method: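 C2C12 cells were seeded in 12-well plates at 7,000 cells/well in 1 mL growth media and exposed to compound in 0.1% DMSO (500 nM). Every 48 hrs half the media was replaced with fresh compound-containing media. After 6 days, cells were lysed and ALP activity measured by pNPP hydrolysis at OD405, normalized to protein and DMSO controls.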

[9] = tested on: Human embryonic stem cells E15 (hESCs); test: qPCR of TLR4/TLR3 ratio and Collagen I in human embryonic stem cells E15; assay type: cell-based; settings: 500 nM, 8 days
Experimental: Human embryonic stem cells E15 (hESCs) obtained from ATCC with less than 15 passages were cultured at 37° C. in 5% CO2 in DMEM media supplemented with 15% heat inactivated FBS and 1× GlutaMax. TLRs are biomarkers of stem cell differentiation. TLR4 expression is an osteogenic biomarker and TLR3 expression is an adipogenic biomarker. […]

hMSCs [10] = test: Alcian Blue staining (chondrogenesis) in hMSCs; assay type: cell-based, human; settings: 25 days; for effect on chondrogenesis, densitometry of cell culture images: 500 nM, TCP 5 mg/mL; for chondrogenesis (Alcian Blue staining) compared to vehicle-treated hMSCs: presence or absence of matrix
Experimental: Alcian Blue Staining: Alcian Blue staining was used to stain for the presence of chondrocytes. Alcian Blue solution (1% wt/volume, acetic acid, pH 2.5). hMSCs were cultured as described above for the Alizarin Red S Staining assay (Ex. 7) in 48-well plates. After 25 days of cell culture, cells were fixed with 4% formaldehyde (40 mins) at room temperature, stained for 1 hr followed by washing with dH2O (1 mL) until water was clear (without blue elutes). Cell culture images were taken under a microscope and quantified by densitometry.

Row | EC50 (hMSCs [3]; Homo sapiens) [nM] | SMILES | cell viability (Alamar blue) (hMSCs [1]) | gene expression of apoptosis biomarkers (Bax and Fos) (hMSCs [2]) | cytotoxicity as determined by quantification of apoptosis (hMSCs [2]) | ALP functional activity, compound and matrix versus compound alone or matrix alone (hMSCs [3]) | Alkaline Phosphatase activity, +matrix, 8 days (hMSCs [3]) | Alkaline Phosphatase activity, +matrix, 25 days (hMSCs [3]) | Alkaline Phosphatase activity, −matrix, 25 days (hMSCs [3]) | Alkaline Phosphatase activity, −matrix, 8 days (hMSCs [3]) | cell viability (Alamar blue) (C2C12 cells [4]) | calcium deposition, absence of matrix (C2C12 cells [5]) | gene expression of apoptosis biomarkers (Bax and Fos) (C2C12 cells [6]) | ID3 mRNA expression, presence of matrix (C2C12 cells [7]) | ALP activity, combination of compound and matrix compared to compound alone or matrix alone (C2C12 cells [8]) | ALP activity fold-changes +/− SD, +matrix (C2C12 cells [8]) [fold] | increase of TLR4/TLR3 ratio in hESCs [9] [fold] | effect on chondrogenesis, densitometry of cell culture images (hMSCs [10]) | chondrogenesis (Alcian Blue staining) compared to vehicle-treated hMSCs (hMSCs [10]) | ALP activity fold-changes +/− SD, −matrix (C2C12 cells [8]) [fold] | also measured
1 | 26 | CC(=O)N1c2ccc(C)cc2[C@H](Nc2ccc(C)cc2)C[C@@H]1C (relative stereo) [Compound 1, cis-1-acetyl-2,6-dimethyl-N-(p-methylphenyl)-1,2,3,4-tetrahydroquinolin-4-amine] | no decrease in cell viability | unable to detect gene expression of typical apoptosis biomarkers | no cytotoxicity | exceeded the effect of compound alone or matrix alone | 1.5 ± 0.1 | 3.6 ± 0.4 | 1.5 ± 0.1 | 1.2 ± 0.1 | did not show a decrease in cell viability | 1.6 fold | unable to detect gene expression of typical apoptosis biomarkers | 5.0 fold | synergistic increase in ALP activity | 19.4 ± 2.0 | – | – | – | – | calcium deposition, presence of matrix (C2C12 cells [5]): 2.5 fold; ID3 mRNA expression, absence of matrix (C2C12 cells [7]): 1.8 fold
2 | – | CC(C)[C@H](N)C(=O)Oc1ccc(C=CC(=O)C=C(O)C=Cc2ccc(OC(=O)[C@@H](N)C(C)C)cc2)cc1 [Compound 3, (2S,2′S)—O,O′-(3-hydroxy-5-oxohepta-1,3,6-triene-1,7-diyl)bis(4,1-phenylene) bis(2-amino-3-methylbutanoate)] | no decrease in cell viability | unable to detect gene expression of typical apoptosis biomarkers | no cytotoxicity | exceeded the effect of compound alone or matrix alone | 1.8 ± 0.1 | 2.3 ± 0.2 | 1.7 ± 0.1 | 1.5 ± 0.1 | did not show a decrease in cell viability | marked calcium deposition | unable to detect gene expression of typical apoptosis biomarkers | increased expression | synergistic increase in ALP activity | – | 2 | modestly inhibitory on chondrogenesis | no increase in chondrogenesis | 1.7 ± 0.2 | EC50 (hMSCs [3]): 140 nM; increase in cell proliferation (Alamar Blue Assay) (C2C12 cells [4]; 50 nM, 3 days): 4 fold
3 | 130 | CC(C)[C@H](N)C(=O)Oc1ccc(/C=C/C(O)=C2\CCC/C(=C\c3ccc(OC(=O)[C@@H](N)C(C)C)cc3)C2=O)cc1 [Compound 4, 4-((1E,3Z)-3-(3-((E)-4-((L-valyl)oxy)benzylidene)-2-oxocyclohexylidene)-3-hydroxyprop-1-en-1-yl)phenyl L-valinate] | no decrease in cell viability | unable to detect gene expression of typical apoptosis biomarkers | no cytotoxicity | exceeded the effect of compound alone or matrix alone | 2.7 ± 0.2 | 4.0 ± 0.4 | 1.8 ± 0.2 | 1.5 ± 0.1 | did not show a decrease in cell viability | marked calcium deposition | unable to detect gene expression of typical apoptosis biomarkers | increased expression | synergistic increase in ALP activity | 2.6 ± 0.3 | 2 | modestly inhibitory on chondrogenesis | no increase in chondrogenesis | 1.7 ± 0.2 | –
